Experimental data published in patent US8372441B2, “Materials and methods for preparation of alkaline earth ferrates from alkaline earth oxides, peroxides, and nitrates” (Biolife, LLC, priority 2007, dated 2013).
Blank lines part the entries; values can stand above or below the compound they belong to.

How the values were obtained:
[1] = solubility in water or saline solution; type: physicochemical; settings: for strontium ferrate water or saline solution
mammalian blood = settings: dry powder on blood; cited from earlier work
[2] = cited from earlier work

Compound: [O]=[Fe][O][Fe]=[O] [Ferric oxide]
- solubility in water [1]: insoluble

- solubility in water [1]: very insoluble
Compound: [Fe+4].[O-2].[O-2].[O-2].[O-2].[Sr+2].[Sr+2] [Strontium ferrate, strontium ferrate]

Compound: [O-2].[Sr+2] [Strontium oxide]
- hemostasis (background) (mammalian blood): some hemostasis

Compound: OO.[Zn] [Zinc peroxide (ZnO2), Zinc peroxide]
- hemostasis (background) (mammalian blood): some hemostatic activity

Compound: [Ba+2].[O]=[Fe](=[O])([O-])[O-] [barium ferrate (BaFeO4), barium ferrate]
- solubility in water (background) [2]: practically insoluble

Compound: strontium ferrate [strontium ferrate (SrFeO4)]
- solubility in water (background) [2]: practically insoluble
